The values that follow are results of earlier work, collected in US20250234859A1, “AQUEOUS SUSPENSION AGROCHEMICAL COMPOSITION, DISEASE CONTROL METHOD, AND USEFUL PLANT SEEDS” (KUMIAI CHEMICAL INDUSTRY CO., LTD., priority 2021, published 2025).

The test system of this data set is rice blast, glume blotch, cucumber downy mildew, and cucumber anthracnose. As to conditions: diseases such as rice blast, Patent Document 3.

With `O=S1(=O)N=C(OCc2snc(Cl)c2Cl)c2ccccc21` [dichlobentiazox, 3-(3,4-dichloroisothiazol-5-ylmethoxy)-1,2-benzothiazole-1,1-dioxide], the “effect on plant diseases” value is “remarkable effect”.
